Organism: Rattus norvegicus
Test: DrugMatrix - Regimen: Daily Repeat
Type: toxicity, organism-based, Sprague-Dawley
Parameters: regimen Daily Repeat, gender Male, age 6-8 weeks
Settings: in vivo, po, route oral GAVAGE, vehicle 100 % WATER; for ABSOLUTE BASOPHIL / ABSOLUTE EOSINOPHIL / ABSOLUTE LYMPHOCYTE / ABSOLUTE MONOCYTE / ABSOLUTE SEGMENTED NEUTROPHIL / BASOPHIL / EOSINOPHIL / ERYTHROCYTE COUNT / HEMATOCRIT / HEMOGLOBIN / LEUKOCYTE COUNT / LYMPHOCYTE / MEAN CORPUSCULAR HEMOGLOBIN / MEAN CORPUSCULAR HEMOGLOBIN CONCENTRATION / MEAN CORPUSCULAR VOLUME / MONOCYTE / NEUTROPHIL / NUCLEATED RED BLOOD CELLS / PLATELET COUNT: tissue Blood; for ALANINE AMINOTRANSFERASE / ALBUMIN / ALKALINE PHOSPHATASE / ASPARTATE AMINOTRANSFERASE / BLOOD UREA NITROGEN / CARBON DIOXIDE / CHLORIDE / CHOLESTEROL / CREATINE PHOSPHOKINASE / CREATININE / GLUCOSE / LACTATE DEHYDROGENASE / LIPASE / PHOSPHORUS / POTASSIUM / SODIUM / TOTAL BILIRUBIN / TOTAL PROTEIN / URIC ACID: tissue Plasma
[1] = 0 mg/kg, 72 h, dose level Control, time 3 day
[2] = 0 mg/kg, 120 h, dose level Control, time 5 day
[3] = […], 72 h, dose 0.025 mg/Kg, dose level Low, time 3 day
[4] = […], 72 h, dose 0.25 mg/Kg, dose level High, time 3 day

## C[C@@H]1C[C@@H]([C@H](O)CC2CC(=O)NC(=O)C2)C(=O)[C@@H](C)C1 [CYCLOHEXIMIDE]
[1]
  ABSOLUTE BASOPHIL: 0 CELLS/uL
  ABSOLUTE EOSINOPHIL: 25 CELLS/uL
  ABSOLUTE LYMPHOCYTE: 14357 CELLS/uL
  ABSOLUTE MONOCYTE: 456.33 CELLS/uL
  ABSOLUTE SEGMENTED NEUTROPHIL: 1461.67 CELLS/uL
  BASOPHIL: 0%
  EOSINOPHIL: 0.17%
  ERYTHROCYTE COUNT: 5.85 x10E6/uL
  HEMATOCRIT: 37.62%
  HEMOGLOBIN: 13.87 G/DL
  LEUKOCYTE COUNT: 16.3 x10E3/uL
  LYMPHOCYTE: 88%
  MEAN CORPUSCULAR HEMOGLOBIN: 23.68 pg
  MEAN CORPUSCULAR HEMOGLOBIN CONCENTRATION: 36.88 G/DL
  MEAN CORPUSCULAR VOLUME: 64.23 fL
  MONOCYTE: 2.83%
  NEUTROPHIL: 9%
  NUCLEATED RED BLOOD CELLS: 0 /100WBC
  PLATELET COUNT: 1125.33 x10E3/uL
  ALANINE AMINOTRANSFERASE: 49.67 u/L
  ALBUMIN: 4.23 G/DL
  ALKALINE PHOSPHATASE: 400.83 u/L
  ASPARTATE AMINOTRANSFERASE: 89.17 u/L
  BLOOD UREA NITROGEN: 16 mg/dL
  CARBON DIOXIDE: 31.83 mmol/L
  CHLORIDE: 99 MEQ/L
  CHOLESTEROL: 76 mg/dL
  CREATINE PHOSPHOKINASE: 777.67 u/L
  CREATININE: 0.22 mg/dL
  GLUCOSE: 158.33 mg/dL
  LACTATE DEHYDROGENASE: 186.17 u/L
  LIPASE: 9.33 u/L
  PHOSPHORUS: 12.95 mg/dL
  POTASSIUM: 7.01 MEQ/L
  SODIUM: 141.53 MEQ/L
  TOTAL BILIRUBIN: 0.18 mg/dL
  TOTAL PROTEIN: 6.08 G/DL
  URIC ACID: 1.77 mg/dL
[2]
  ABSOLUTE BASOPHIL: 0 CELLS/uL
  ABSOLUTE EOSINOPHIL: 0 CELLS/uL
  ABSOLUTE LYMPHOCYTE: 8994.5 CELLS/uL
  ABSOLUTE MONOCYTE: 122.33 CELLS/uL
  ABSOLUTE SEGMENTED NEUTROPHIL: 666.5 CELLS/uL
  BASOPHIL: 0%
  EOSINOPHIL: 0%
  ERYTHROCYTE COUNT: 5.74 x10E6/uL
  HEMATOCRIT: 35.17%
  HEMOGLOBIN: 13.28 G/DL
  LEUKOCYTE COUNT: 9.78 x10E3/uL
  LYMPHOCYTE: 92.33%
  MEAN CORPUSCULAR HEMOGLOBIN: 23.15 pg
  MEAN CORPUSCULAR HEMOGLOBIN CONCENTRATION: 37.8 G/DL
  MEAN CORPUSCULAR VOLUME: 61.27 fL
  MONOCYTE: 1.33%
  NEUTROPHIL: 6.33%
  NUCLEATED RED BLOOD CELLS: 0 /100WBC
  PLATELET COUNT: 1117 x10E3/uL
  ALANINE AMINOTRANSFERASE: 47.83 u/L
  ALBUMIN: 4.33 G/DL
  ALKALINE PHOSPHATASE: 414.5 u/L
  ASPARTATE AMINOTRANSFERASE: 77.5 u/L
  BLOOD UREA NITROGEN: 17 mg/dL
  CARBON DIOXIDE: 32.33 mmol/L
  CHLORIDE: 99.33 MEQ/L
  CHOLESTEROL: 76.33 mg/dL
  CREATINE PHOSPHOKINASE: 363.67 u/L
  CREATININE: 0.25 mg/dL
  GLUCOSE: 173.5 mg/dL
  LACTATE DEHYDROGENASE: 129.33 u/L
  LIPASE: 9.17 u/L
  PHOSPHORUS: 11.52 mg/dL
  POTASSIUM: 5.73 MEQ/L
  SODIUM: 143.85 MEQ/L
  TOTAL BILIRUBIN: 0.2 mg/dL
  TOTAL PROTEIN: 6.43 G/DL
  URIC ACID: 0.97 mg/dL
[3]
  ABSOLUTE BASOPHIL: 0 CELLS/uL
  ABSOLUTE EOSINOPHIL: 0 CELLS/uL
  ABSOLUTE LYMPHOCYTE: 12322.33 CELLS/uL
  ABSOLUTE MONOCYTE: 322 CELLS/uL
  ABSOLUTE SEGMENTED NEUTROPHIL: 1589 CELLS/uL
  BASOPHIL: 0%
  EOSINOPHIL: 0%
  ERYTHROCYTE COUNT: 5.38 x10E6/uL
  HEMATOCRIT: 34.5%
  HEMOGLOBIN: 12.73 G/DL
  LEUKOCYTE COUNT: 14.23 x10E3/uL
  LYMPHOCYTE: 86.67%
  MEAN CORPUSCULAR HEMOGLOBIN: 23.63 pg
  MEAN CORPUSCULAR HEMOGLOBIN CONCENTRATION: 36.93 G/DL
  MEAN CORPUSCULAR VOLUME: 64 fL
  MONOCYTE: 2.33%
  NEUTROPHIL: 11%
  NUCLEATED RED BLOOD CELLS: 0 /100WBC
  PLATELET COUNT: 1165.33 x10E3/uL
[4]
  ABSOLUTE BASOPHIL: 0 CELLS/uL
  ABSOLUTE EOSINOPHIL: 0 CELLS/uL
  ABSOLUTE LYMPHOCYTE: 15128.33 CELLS/uL
  ABSOLUTE MONOCYTE: 349 CELLS/uL
  ABSOLUTE SEGMENTED NEUTROPHIL: 956 CELLS/uL
  BASOPHIL: 0%
  EOSINOPHIL: 0%
  ERYTHROCYTE COUNT: 5.63 x10E6/uL
  HEMATOCRIT: 36.7%
  HEMOGLOBIN: 13.27 G/DL
  LEUKOCYTE COUNT: 16.43 x10E3/uL
  LYMPHOCYTE: 91.67%
  MEAN CORPUSCULAR HEMOGLOBIN: 23.6 pg
  MEAN CORPUSCULAR HEMOGLOBIN CONCENTRATION: 36.17 G/DL
  MEAN CORPUSCULAR VOLUME: 65.3 fL
  MONOCYTE: 2%
  NEUTROPHIL: 6.33%
  NUCLEATED RED BLOOD CELLS: 0 /100WBC
  PLATELET COUNT: 1150.67 x10E3/uL

Reference: ChEMBL document CHEMBL3885881, “DrugMatrix”
